Tested on: TXA2 agonist activity
Test: Absence of Agonist Activity (pressor response in pithed rats)
Type: in vivo
Source text: 3. Absence of Agonist Activity.

| Structure (SMILES) | increase in the mean arterial pressure (0.1 mg/kg i.v., at one minute after dosing) | pressor response following i.v. administration (i.v., doses up to 10 mg/kg) |
| --- | --- | --- |
| O=C(O)CCC/C=C\CC1C2CCC(C2)C1NS(=O)(=O)c1ccccc1 (centres unmarked) [Example S-145] | transient, but significant, increase in the mean arterial pressure |  |
| O=C(O)CCCC/C=C(\c1ccc(-c2nc(C(=O)NCCCCC3CCCCC3)co2)cc1)c1cccnc1 [Example 2, (E)-7-[4-[4-[[(4-Cyclohexylbutyl)amino]carbonyl]-2-oxazolyl]phenyl]-7-(3-pyridyl)hept-6-enoic Acid] |  | absence of a pressor response |

Source: patent publication US5849922A, “Preparation of substituted alkenoic acids” (Eli Lilly and Company, priority 1997, dated 1998)
